In ChEMBL document CHEMBL1140610, “Matrix metalloproteinases (MMPs): chemical-biological functions and (Q)SARs” (Bioorg Med Chem, 2007):

Tests used:
Interstitial collagenase = molecular target: T1, Interstitial collagenase (Homo sapiens, UniProt P03956); conditions: read-out: log(1/IC50) (converted)
T1 sequence (P03956 whole entry): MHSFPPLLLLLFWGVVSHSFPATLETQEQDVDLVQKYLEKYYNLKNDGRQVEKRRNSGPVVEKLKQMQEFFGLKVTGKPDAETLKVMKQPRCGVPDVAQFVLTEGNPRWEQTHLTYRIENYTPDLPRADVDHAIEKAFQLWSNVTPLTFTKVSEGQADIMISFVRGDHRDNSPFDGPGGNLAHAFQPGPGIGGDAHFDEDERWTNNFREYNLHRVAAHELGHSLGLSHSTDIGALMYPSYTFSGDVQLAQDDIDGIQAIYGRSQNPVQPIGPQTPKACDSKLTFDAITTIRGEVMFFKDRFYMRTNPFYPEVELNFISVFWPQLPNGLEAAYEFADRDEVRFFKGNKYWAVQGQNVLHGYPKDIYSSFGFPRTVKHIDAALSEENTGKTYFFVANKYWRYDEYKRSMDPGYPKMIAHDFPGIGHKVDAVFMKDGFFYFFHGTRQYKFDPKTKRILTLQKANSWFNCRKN

[1] = molecular target: Matrix metalloproteinase-14 (Homo sapiens, UniProt P50281)
Matrilysin = molecular target: T2, Matrilysin (Homo sapiens, UniProt P09237); conditions: read-out: log(1/IC50) (converted)
T2 sequence (P09237 whole entry): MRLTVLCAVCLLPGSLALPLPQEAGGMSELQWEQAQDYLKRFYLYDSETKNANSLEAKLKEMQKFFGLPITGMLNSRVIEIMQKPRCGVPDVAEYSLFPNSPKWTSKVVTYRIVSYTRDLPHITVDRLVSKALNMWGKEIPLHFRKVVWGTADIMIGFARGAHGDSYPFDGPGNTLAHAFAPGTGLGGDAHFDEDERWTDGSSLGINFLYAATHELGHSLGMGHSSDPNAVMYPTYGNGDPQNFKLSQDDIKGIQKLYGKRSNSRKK

SMILES	IC50 (Interstitial collagenase) [nM]	also measured
CC(C(=O)NO)N(Cc1ccc([N+](=O)[O-])cc1)S(=O)(=O)c1c(F)c(F)c(F)c(F)c1F (configuration not stated)	3.98	
CCOCCC1(Oc2ccc(Oc3ccc(F)cc3)cc2)C(=O)NC(=O)NC1=O		IC50 [1]: 22.9 nM
CNC(=O)[C@@H](Cc1ccc(OC)cc1)NC(=O)C(CC(C)C)CP(=O)(O)Cc1ccc(S(=O)(=O)c2ccccc2)cc1 (some centres not stated)	1700	
CNC(=O)[C@@H](Cc1ccc(OC)cc1)NC(=O)C(CC(C)C)CP(=O)(O)Cc1ccc(Cc2ccccc2)cc1 (some centres not stated)	269	
CNC(=O)[C@@H](Cc1ccc(OC)cc1)NC(=O)C(CC(C)C)CP(=O)(O)Cc1ccccc1-c1ccccc1 (some centres not stated)	11000	
CNC(=O)[C@@H](NC(=O)C(CCC1CCCCC1)CP(=O)(O)Cc1ccc(Cc2ccccc2)cc1)C(C)(C)C (some centres not stated)	19100	
CNC(=O)[C@@H](Cc1ccc(OC)cc1)NC(=O)C(CC(C)C)CP(=O)(O)Cc1ccc(-c2ccccc2)cc1 (some centres not stated)	2190	
CNC(=O)[C@@H](Cc1ccc(OC)cc1)NC(=O)C(CC(C)C)CP(=O)(O)Cc1ccc(CC(C)C)cc1 (some centres not stated)	4470	
C[C@@]1(O)CCCN(S(=O)(=O)c2ccc(OCc3ccccc3C#N)cc2)C1C(=O)NO (some centres not stated)	2690	
Cc1c(F)cccc1COc1ccc(S(=O)(=O)N2CCC[C@@](C)(O)C2C(=O)NO)cc1 (some centres not stated)	1290	
C[C@@]1(O)CCCN(S(=O)(=O)c2ccc(OCc3ccccc3F)cc2)C1C(=O)NO (some centres not stated)	182	
C[C@@]1(O)CCCN(S(=O)(=O)c2ccc(OCc3cccc(F)c3)cc2)C1C(=O)NO (some centres not stated)	339	
C[C@@]1(O)CCCN(S(=O)(=O)c2ccc(OCc3ccc(F)cc3)cc2)C1C(=O)NO (some centres not stated)	417	
Cc1ccccc1COc1ccc(S(=O)(=O)N2CCC[C@@](C)(O)C2C(=O)NO)cc1 (some centres not stated)	309	
CC(N)P(=O)(O)CC(CCCc1ccccc1)C(=O)NC(Cc1c[nH]c2ccccc12)C(N)=O (configuration not stated)	30.9	
CNC(=O)[C@@H](Cc1ccc(OC)cc1)NC(=O)C(CC(C)C)CP(=O)(O)Cc1cccc(-c2ccccc2)c1 (some centres not stated)	5130	
C[C@@]1(O)CCCN(S(=O)(=O)c2ccc(OCc3ccc(F)cc3Cl)cc2)C1C(=O)NO (some centres not stated)	309	
C[C@@]1(O)CCCN(S(=O)(=O)c2ccc(OCc3ccc(Cl)cc3F)cc2)C1C(=O)NO (some centres not stated)	120	
CCOCCC1(Oc2ccc(Oc3ccccc3F)cc2)C(=O)NC(=O)NC1=O		IC50 [1]: 15.8 nM
COc1ccc(S(=O)(=O)N2CC(N3C(=O)CN(C)C3=O)C[C@@H]2C(=O)NO)cc1 (some centres not stated)		IC50 (Matrilysin): 1820 nM
CCOc1ccc(S(=O)(=O)N2CC(N3C(=O)CN(C)C3=O)C[C@@H]2C(=O)NO)cc1 (some centres not stated)		IC50 (Matrilysin): 7590 nM
CCCOc1ccc(S(=O)(=O)N2CC(N3C(=O)CN(C)C3=O)C[C@@H]2C(=O)NO)cc1 (some centres not stated)		IC50 (Matrilysin): 2570 nM
CCOCCC1(Oc2ccc(Oc3ccc(Cl)cc3)cc2)C(=O)NC(=O)NC1=O		IC50 [1]: 18.2 nM
CCOCCC1(Oc2ccc(Oc3cccc(Cl)c3)cc2)C(=O)NC(=O)NC1=O		IC50 [1]: 120 nM
CCOCCC1(Oc2ccc(Oc3ccc(C)cc3)cc2)C(=O)NC(=O)NC1=O		IC50 [1]: 22.9 nM
CCOCCC1(Oc2ccc(Oc3cccc(C)c3)cc2)C(=O)NC(=O)NC1=O		IC50 [1]: 50.1 nM

SMILES	IC50 (Interstitial collagenase) [nM]	also measured
CCOCCC1(Oc2ccc(Oc3ccccc3C)cc2)C(=O)NC(=O)NC1=O		IC50 [1]: 70.8 nM
CCOCCC1(Oc2ccc(Oc3ccc(C(F)(F)F)cc3)cc2)C(=O)NC(=O)NC1=O		IC50 [1]: 151 nM
COCCOc1ccc(S(=O)(=O)N2CC(N3C(=O)CN(C)C3=O)C[C@@H]2C(=O)NO)cc1 (some centres not stated)		IC50 (Matrilysin): 9120 nM
CN1CC(=O)N(C2C[C@H](C(=O)NO)N(S(=O)(=O)c3ccc(Oc4ccccc4)cc3)C2)C1=O (some centres not stated)		IC50 (Matrilysin): 309 nM
C[C@@]1(O)CCCN(S(=O)(=O)c2ccc(OCc3ccnc(Cl)c3)cc2)C1C(=O)NO (some centres not stated)	525	
CCOCCC1(Oc2ccc(Oc3ccc(C(C)(C)C)cc3)cc2)C(=O)NC(=O)NC1=O		IC50 [1]: 6760 nM
CCOCCC1(Oc2ccc(Oc3ccc(OC)cc3)cc2)C(=O)NC(=O)NC1=O		IC50 [1]: 219 nM
CCOCCC1(Oc2ccc(Oc3ccc(S(C)(=O)=O)cc3)cc2)C(=O)NC(=O)NC1=O		IC50 [1]: 8710 nM
CN1CC(=O)N(C2C[C@H](C(=O)NO)N(S(=O)(=O)c3ccc(Oc4ccncc4)cc3)C2)C1=O (some centres not stated)		IC50 (Matrilysin): 7410 nM
Cc1ncccc1COc1ccc(S(=O)(=O)N2CCC[C@@](C)(O)C2C(=O)NO)cc1 (some centres not stated)	1580	
CCOCCC1(Oc2ccc(Oc3ccc(C#N)cc3)cc2)C(=O)NC(=O)NC1=O		IC50 [1]: 200 nM
CCOCCC1(Oc2ccc(Oc3ccc(C(=O)NC)cc3)cc2)C(=O)NC(=O)NC1=O		IC50 [1]: 646 nM
C[C@@]1(O)CCCN(S(=O)(=O)c2ccc(OCc3ccnc4ccccc34)cc2)C1C(=O)NO (some centres not stated)	120	
CCCCOc1ccc(S(=O)(=O)N2CC(N3C(=O)NC(C)(C)C3=O)C[C@@H]2C(=O)NO)cc1 (some centres not stated)		IC50 (Matrilysin): 447 nM
C=CCN1CC(=O)N(C2C[C@H](C(=O)NO)N(S(=O)(=O)c3ccc(OCCC)cc3)C2)C1=O (some centres not stated)		IC50 (Matrilysin): 2570 nM
C=CCN1CC(=O)N(C2C[C@H](C(=O)NO)N(S(=O)(=O)c3ccc(OCCOC)cc3)C2)C1=O (some centres not stated)		IC50 (Matrilysin): 11000 nM
CCCCOc1ccc(S(=O)(=O)N2CC(N3C(=O)CN(CCC)C3=O)C[C@@H]2C(=O)NO)cc1 (some centres not stated)		IC50 (Matrilysin): 1200 nM
CNC(=O)[C@@H](NC(=O)C(CC(C)C)CP(=O)(O)Cc1ccc(Cc2ccccc2)cc1)C(C)(C)C (some centres not stated)	60.3	
CNC(=O)[C@@H](NC(=O)C(CCC(F)(F)F)CP(=O)(O)Cc1ccc(Cc2ccccc2)cc1)C(C)(C)C (some centres not stated)	44.7	
CNC(=O)[C@@H](NC(=O)C(CC1CC1)CP(=O)(O)Cc1ccc(Cc2ccccc2)cc1)C(C)(C)C (some centres not stated)	200	
CNC(=O)[C@@H](NC(=O)C(CC1CCC1)CP(=O)(O)Cc1ccc(Cc2ccccc2)cc1)C(C)(C)C (some centres not stated)	178	
CNC(=O)[C@@H](NC(=O)C(CC1CCCCC1)CP(=O)(O)Cc1ccc(Cc2ccccc2)cc1)C(C)(C)C (some centres not stated)	1820	
CNC(=O)[C@@H](NC(=O)C(CCc1ccccc1)CP(=O)(O)Cc1ccc(Cc2ccccc2)cc1)C(C)(C)C (some centres not stated)	692	
O=C(CN(Cc1ccc([N+](=O)[O-])cc1)S(=O)(=O)c1c(F)c(F)c(F)c(F)c1F)NO	3.02	
CC(C)CC(C(=O)NO)N(Cc1ccccc1)S(=O)(=O)c1c(F)c(F)c(F)c(F)c1F (configuration not stated)	6.03	
CC(N)P(=O)(O)CC(CSCc1ccccc1)C(=O)NC(Cc1c[nH]c2ccccc12)C(N)=O (configuration not stated)	14.1	

SMILES	IC50 (Interstitial collagenase) [nM]	also measured
CNC(=O)[C@@H](Cc1ccc(OC)cc1)NC(=O)C(CC(C)C)CP(=O)(O)Cc1cccc(CCc2ccccc2)c1 (some centres not stated)	7410	
C[C@@]1(O)CCCN(S(=O)(=O)c2ccc(OCc3cncc4ccccc34)cc2)C1C(=O)NO (some centres not stated)	7760	
CNC(=O)[C@@H](Cc1ccc(OC)cc1)NC(=O)C(CC(C)C)CP(=O)(O)Cc1ccc(CC2CCCCC2)cc1 (some centres not stated)	1910	
C[C@@]1(O)CCCN(S(=O)(=O)c2ccc(OCc3ccncc3)cc2)C1C(=O)NO (some centres not stated)	191	
C[C@@]1(O)CCCN(S(=O)(=O)c2ccc(OCc3cccc(Cl)c3)cc2)C1C(=O)NO (some centres not stated)	851	
CCCCOc1ccc(S(=O)(=O)N2CC(N3C(=O)NC(SC)C3=O)C[C@@H]2C(=O)NO)cc1 (some centres not stated)		IC50 (Matrilysin): 851 nM
CNC(=O)[C@@H](Cc1ccc(OC)cc1)NC(=O)C(CC(C)C)CP(=O)(O)Cc1ccccc1 (some centres not stated)	15100	
CC(N)P(=O)(O)CC(Cc1ccccc1)C(=O)NC(Cc1c[nH]c2ccccc12)C(N)=O (configuration not stated)	251	
CCCN1CC(=O)N(C2C[C@H](C(=O)NO)N(S(=O)(=O)c3ccc(OCCOC)cc3)C2)C1=O (some centres not stated)		IC50 (Matrilysin): 11000 nM
CC(C)COc1ccc(S(=O)(=O)N2CC(N3C(=O)CN(C)C3=O)C[C@@H]2C(=O)NO)cc1 (some centres not stated)		IC50 (Matrilysin): 2290 nM
CCCC(CP(=O)(O)Cc1ccc(Cc2ccccc2)cc1)C(=O)N[C@H](C(=O)NC)C(C)(C)C (some centres not stated)	339	
CNC(=O)[C@@H](NC(=O)C(CCC(C)C)CP(=O)(O)Cc1ccc(Cc2ccccc2)cc1)C(C)(C)C (some centres not stated)	3470	
CCOCCC1(Oc2ccc(Oc3ccccc3Cl)cc2)C(=O)NC(=O)NC1=O		IC50 [1]: 513 nM
CCOCCC1(Oc2ccc(Oc3ccc(Br)cc3)cc2)C(=O)NC(=O)NC1=O		IC50 [1]: 19.1 nM
CCOCCC1(Oc2ccc(Oc3ccc(-c4ccccc4)cc3)cc2)C(=O)NC(=O)NC1=O		IC50 [1]: 36.3 nM
CCOCCC1(Oc2ccc(Oc3ccc(C(N)=O)cc3)cc2)C(=O)NC(=O)NC1=O		IC50 [1]: 617 nM
CCOCCC1(Oc2ccc(Oc3ccc(C(=O)N(C)C)cc3)cc2)C(=O)NC(=O)NC1=O		IC50 [1]: 9330 nM
CNC(=O)[C@@H](Cc1ccc(OC)cc1)NC(=O)C(CC(C)C)CP(=O)(O)Cc1ccc(Oc2ccccc2)cc1 (some centres not stated)	2820	
CC(N)P(=O)(O)CC(COCc1ccccc1)C(=O)NC(Cc1c[nH]c2ccccc12)C(N)=O (configuration not stated)	251	
C=CCN1CC(=O)N(C2C[C@H](C(=O)NO)N(S(=O)(=O)c3ccc(OCCCC)cc3)C2)C1=O (some centres not stated)		IC50 (Matrilysin): 1000 nM
CCOCCC1(Oc2ccc(Oc3cccc(F)c3)cc2)C(=O)NC(=O)NC1=O		IC50 [1]: 60.3 nM
CC(N)P(=O)(O)CC(CCc1ccccc1)C(=O)NC(Cc1c[nH]c2ccccc12)C(N)=O (configuration not stated)	79.4	
COc1ccccc1COc1ccc(S(=O)(=O)N2CCC[C@@](C)(O)C2C(=O)NO)cc1 (some centres not stated)	2570	
CCCCOc1ccc(S(=O)(=O)N2CC(N3C(=O)CN(C)C3=O)C[C@@H]2C(=O)NO)cc1 (some centres not stated)		IC50 (Matrilysin): 1580 nM
C[C@@]1(O)CCCN(S(=O)(=O)c2ccc(OC[n+]3ccncc3)cc2)C1C(=O)NO (some centres not stated)	1580	
